Results: publication PMC11289455 (Scientific Reports, 2024)
“And” between values parts separate entries of the source, which are not always exact repeats. Equal values may be shown once. One block for each molecule: values may come before it. Positions of bridges follow the written chain, without caps; N, C: chain ends. Non-standard residues stand in square brackets, D forms with d. Trp(7-Me) = Cc1cccc2c(C[C@H](N)C(=O)O)c[nH]c12; 2Nal = N[C@@H](Cc1ccc2ccccc2c1)C(=O)O; AEF = NCCOc1ccc(C[C@H](N)C(=O)O)cc1; 3Pal = N[C@@H](Cc1cccnc1)C(=O)O; Pen = CC(C)(S)[C@H](N)C(=O)O; Thp = NC1(C(=O)O)CCOCC1; Sar = CNCC(=O)O

Key:
[1] = system: IL-12– and IL-23–dependent phosphorylation of STAT4 and STAT3; parameters: method as in PMID 31341059; conditions: cited from earlier work
[2] = biological target: T1, Biotinylated recombinant rat IL23R (rIL23R^biot, hGH.ratIL23R.24-317.GS.Avi.TEV.8His) (rat, UniProt F1LX96 24-317, biotinylated (TurboBiotinylase)); test: SPR; ~2500 RU biotinylated rat IL-23R captured on a streptavidin chip; JNJ-77242113 injected at multiple concentrations; PBS, 0.05% P20, 5% DMSO; 37 °C; association 150 s, dissociation 2000 s; Biacore 8K+, parallel kinetics, 1:1 binding model; conditions: both partners purified
T1 construct: rat IL-23 receptor subunit IL-23R, extracellular domain, residues 24-317, from the construct name hGH.ratIL23R.24-317.GS.Avi.TEV.8His; A GS linker stands between the receptor and the Avi tag; The 8His tag follows a TEV site; also called rat IL-23R ECD; not shown: Avi, C-terminal, kept; His8, C-terminal, cleaved
T1 sequence (looked up): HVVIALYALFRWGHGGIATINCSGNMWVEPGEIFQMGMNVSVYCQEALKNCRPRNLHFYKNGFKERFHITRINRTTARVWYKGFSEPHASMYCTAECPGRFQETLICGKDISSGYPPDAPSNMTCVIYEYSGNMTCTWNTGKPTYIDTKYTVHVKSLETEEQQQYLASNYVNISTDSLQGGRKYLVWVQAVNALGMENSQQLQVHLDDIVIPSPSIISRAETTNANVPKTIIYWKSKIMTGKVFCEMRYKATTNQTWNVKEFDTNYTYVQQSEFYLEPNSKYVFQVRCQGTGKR

Molecule: deucravacitinib
- Effect on IL-12– and IL-23–dependent phosphorylation of STAT4 and STAT3 [1]: inhibits both

- Kd [2]: 0.0175 nM and 0.012 to 0.023 nM
B1: JNJ-77242113 (peptide)
chain: Ac-[Pen]NT[Trp(7-Me)]K(Ac)[Pen][AEF][2Nal][Thp]EN[3Pal][Sar]-NH2
modifications: disulfide 1-6
